Results reported in patent US8592446B2, “[1,10]-phenanthroline derivatives for the treatment of neurodegenerative or haematological diseases” (Noscira, S.A., priority 2007, dated 2013).

Experiments:
[1] = tested on: SH-SY5Y human neuroblastoma cells; test: Protection against hydrogen peroxide-induced cell death (LDH); format: cell-based; details: compound 1 h before H2O2 100 μM, 24 h; for minimal effective concentration: Homo sapiens, SH-SY5Y, read-out: Protect. H2O2 (minimum concentration for which protection was determined)
Procedure: The aim of this assay is to determine the neuroprotective effect of the compounds of formula (I), when human neuroblastoma cells are exposed to oxidative stress induced by hydrogen peroxide, which is highly deleterious to the cell and its accumulation causes oxidation of cellular targets such as DNA, proteins, and lipids leading to mutagenesis and cell death.
SH-SY5Y human neuroblastoma cells are seeded into 96-well culture plate at a density of 10^4 cells/well. Cells are exposed to different concentrations of the compound one hour before the treatment with H2O2 100 μM during 24 h. 5 mM N-acetylcysteine (NAC), a known anti-oxidant agent was used as a positive control, and preincubated 1 hour before the treatment with H2O2. After 24 h, the medium is removed and cells attached to the bottom of the well are lysed by adding 50 μl of Triton X-100 1% in Krebs-Hepes during 5 minutes at room temperature. For LDH release quantification, Roche cytotoxicity detection kit (Cat. No. 11 644 793 001) was used.

[2] = tested on: SH-SY5Y human neuroblastoma cells; test: Protection against 6-OHDA-induced cell death, condition A (10% foetal bovine serum); format: cell-based; details: preincubated 2 hours, 6-OHDA 75 μM 16 hours, read-out: Protect. 6-OHDA (+ FBS) (minimum concentration with neuroprotective effect)
Description: (§1) The aim of this experiment is to determine the protective effect of the compounds of formula (1) against the toxicity caused by 6-OHDA. This toxin induces a cell death similar to which occurs in Parkinson's disease, destroying dopaminergic neurons (“MPTP and 6-hydroxydopamine-induced neurodegeneration as models for Parkinson's disease: neuroprotective strategies”; Grunblatt E, et al.; J Neurol. 2000 Apr; 247 Suppl 2:II95-102).
(§2) Two or three days before the experiment, the SH-SY5Y human neuroblastoma cells are seeded into 96-well culture plate at a density of 10^4 cells/well. Cells are exposed to the treatment with 6-OHDA and, finally, cell death is measured by LDH quantification. As positive control we used NAC.
• A) NAC and the compound of formula (I) are preincubated during 2 hours before the treatment with 6-OHDA 75 μM during 16 hours. The assay is performed in medium containing 10% Foetal bovine serum.
(§3) For each compound the minimum concentration of compound of formula (I) at which a neuroprotective effect is shown.

[3] = Chelating ability with Cu (II) (absorbance spectra); format: physicochemical; details: for Ability to complex Cu (II) (spectrum of mixture vs sum of individual spectra): 200 μM, PBS 10 mM, pH 7.4, FIG. 6
Procedure: FIG. 6 depicts the absorbance spectra of the mixture of Cu (II) and each of the quelating ligands (Compound 4, Compound 7, Compound 8). Concentration of Cu(II) and all compounds 200 μM, PBS 10 mM, pH 7.4.
FIG. 7 is the absorbance spectra of the complex Cu(II)-Compound 10. Concentration 200 μM, PBS 10 mM, pH 7.4.
(§4) Therefore, it may be observed that the compounds of formula (I) have a high affinity to Fe (II) in comparison to the rest of metalic ions tested.

[4] = Chelating ability with Zn (II) (absorbance spectra); format: physicochemical; details: for Ability to complex Zn(II): PBS 10 mM, pH 7.4, FIGS. 8-11; for Dissociation grade / Stoichiometry / ε approx.: Zn (II) complex, pH 7.4, expecting time 24 h (4, 7) or 4 h (8, 10)
Procedure: FIG. 8 represents the absorbance spectra of the complex Zn(II)-Compound 4. Concentration 200 μM, PBS 10 mM, pH 7.4.
Concentration 180 μM, PBS 10 mM, pH 7.4.
Concentration 100 μM, PBS 10 mM, pH 7.4.
Concentration 20 μM, PBS 10 mM, pH 7.4. […]

[5] = tested on: SH-SY5Y human neuroblastoma cells; test: Protection against 6-OHDA-induced cell death, condition B (no fetal bovine serum); format: cell-based; details: preincubated 1 hour, 6-OHDA 50 μM 24 hours, read-out: Protect. 6-OHDA (−FBS) (minimum concentration with neuroprotective effect)
Description: as §1, §2
• B) NAC and the compound of formula (I) are preincubated during 1 hour before the treatment with 6-OHDA 50 μM during 24 hours. The assay is performed in a medium without any fetal bovine serum.
as §3

[6] = Chelating ability with Fe(II) (absorbance spectra); format: physicochemical; details: for Formation constant: Fe (II) complex 1:3 (ML3); for Dissociation grade / Stoichiometry / ε approx.: Fe (II) complex; for Ability to complex Fe (II) (spectrum of mixture vs sum of individual spectra): PBS 10 mM, pH 7.4 or 8, FIGS. 2-5
Procedure: FIG. 2 is an absorbance spectrum of the complex Fe(II)-Compound 4. Concentration of Fe(II) and Compound 4, 200 μM, PBS 10 mM, pH 8.
FIG. 3 is an absorbance spectrum of the complex Fe(II)-Compound 7. Concentration of Fe(II) and Compound 7 , 400 μM, PBS 10 mM, pH 8.
FIG. 4 is an absorbance spectrum of the complex Fe(II)-Compound 8. Concentration of Fe(II) and Compound 8, 200 μM, PBS 10 mM, pH 7.4.
FIG. 5 is an absorbance spectrum of the complex Fe(II)-Compound 10. Concentration of Fe(II) and Compound 10, 100 μM, PBS 10 mM, pH 7.4.
as §4

[7] = Chelating ability with Fe (III) (absorbance spectra); format: physicochemical; details: PBS 10 mM, pH 7.4, ligand and Fe(III) 200 μM, FIG. 1
Procedure: FIG. 1 is an absorbance spectrum of compounds 4, 7, 8 and 10 in absence and presence of Fe(III). PBS 10 mM, pH 7.4. Concentration of ligand and Fe(III), 200 μM.
Only one line is observed, as the spectra are overlapping (see FIG. 1).

[8] = pH 8*, expecting time 30 min (4) or 60 min (7)
[9] = Zn (II) complex 1:2 (ML2), pH 7.4, expecting time 24 h (7) or 4 h (8, 10)
[10] = pH 7.4, expecting time Immediate
[11] = Cu (II) complex, pH 7.4, expecting time 2 h

Ability to complex Zn(II) [4] | Dissociation grade [4] | Stoichiometry [4] | ε approx. [4] [L/mol/cm] | Dissociation grade [6, 8] | Stoichiometry [6, 8] | ε approx. [6, 8] [L/mol/cm] | Ability to complex Fe (II) (spectrum of mixture vs sum of individual spectra) [6] | Ability to complex Fe (III) (change in absorbance spectra) [7] | Dissociation grade [6, 10] | Stoichiometry [6, 10] | ε approx. [6, 10] [L/mol/cm] | Compound | minimal effective concentration [1] [µM] | minimal effective concentration [2] [µM] | Ability to complex Cu (II) (spectrum of mixture vs sum of individual spectra) [3] | minimal effective concentration [5] [µM] | Formation constant [6, 8] | Formation constant [4, 9] | Protect. H2O2 (minimum concentration for which protection was determined) [1] [nM] | Formation constant [6, 10] | further results
complexed with Zn(II) to an extent | 46 ± 7 | 1:1 (ML) | ~1000 | 0.147 ± 0.002 | 1:3 (ML3) | ~1800 | able to complex the Fe (II) | no change in the absorbance spectra |  |  |  | CSc1cc(/C=N/O)nc2c1ccc1cccnc12 [Compound 4, 4-Methylsulfanyl-[1,10]phenanthroline-2-carbaldehyde oxime] | 0.05 | 0.05 | none of the ligands are able to complex the Cu (II) | 0.5 | 8.2 ± 0.5 · 10^12 |  |  |  | Formation constant ([4]; Zn (II) complex 1:1 (ML), pH 7.4, expecting time 24 h): 2.2 ± 0.6 · 10^4 l/mol
complexed with Zn(II) to an extent | 13.4 ± 0.7 | 1:2 (ML2) | ~840 | 0.023 ± 0.002 | 1:3 (ML3) | ~280 | able to complex the Fe (II) | no change in the absorbance spectra |  |  |  | CC(C)Sc1cc(/C=N/O)nc2c1ccc1cccnc12 [Compound 7, 4-Isopropylsulfanyl-[1,10]phenanthroline-2-carbaldehyde oxime] | 0.05 | 0.05 | none of the ligands are able to complex the Cu (II) | 0.5 | 2.0 ± 0.6 · 10^15 | 2.2 ± 0.6 · 10^10 l^2/mol^2 |  |  | 
complexed with Zn(II) to an extent | 7.7 ± 0.6 | 1:2 (ML2) | ~7100 |  |  |  | able to complex the Fe (II) | no change in the absorbance spectra | 0.022 ± 0.006 | 1:3 (ML3) | ~1600 | COCCOc1cc(/C=N/O)nc2c1ccc1cccnc12 [Compound 8, 4-(2-Methoxy-ethoxy)-[1,10]phenanthroline-2-carbaldehyde oxime] |  | 0.05 | none of the ligands are able to complex the Cu (II) | 0.5 |  | 1.4 ± 0.6 · 10^11 l^2/mol^2 | 50 | 4.0 ± 1.3 · 10^17 | 
complexed with Zn(II) to an extent | 3.7 ± 0.6 | 1:2 (ML2) | ~9400 |  |  |  | able to complex the Fe (II) | no change in the absorbance spectra | 0.019 ± 0.004 | 1:3 (ML3) | ~6700 | CCN(CC)CCOc1cc(/C=N/O)nc2c1ccc1cccnc12 [Compound 10, 4-(2-Diethylamino-ethoxy)-[1,10]phenanthroline-2-carbaldehyde oxime] |  | 0.05 |  | 0.5 |  | 1.7 ± 0.4 · 10^13 l^2/mol^2 | 50 | 5.0 ± 1.0 · 10^17 | Formation constant ([3]; Cu (II) complex 1:1 (ML), pH 7.4, expecting time 2 h): 4.4 ± 0.6 · 10^6 l/mol; Dissociation grade [3, 11]: 3.8 ± 0.4; Stoichiometry [3, 11]: 1:1 (ML); ε approx. [3, 11]: ~400 L/mol/cm
